Measured values from patent US11472812B2, “Anti-cancer compounds targeting Ral GTPases and methods of using the same” (The Regents of the University of Colorado, a body corporate, priority 2014, dated 2022).
Values after ≈ are worked out from the molar mass of the structure shown.

Columns and labels:
Ras = Ras activity pull-down in H2122 xenograft tumors; assay type: in vivo, human; conditions: BQU57 treated H2122 tumors, 3 h post-dose
Source text: (§1) Activity assay kits for Ras (#BK008) and RhoA (#BK036) were obtained from Cytoskeleton (Denver, Colo.). We used an ELISA for Ral activity based on selective binding of active RalA-GTP to its effector protein RalBP1.
(§2) Finally, we evaluated Ral GTPase activity in vivo in the H2122 xenografts. Nude mice were inoculated with 5×10^6 cells H2122 cells s.c. at four sites per mice. Tumor size reached an average of 250 mm^3 in ten days, at which time mice were given a signal i.p. dose of RBC8 or BQU57 at various concentrations. Tumors were then collected 3 h after injection of RBC8 or BQU57. RalA and RalB activity in tumor samples were then measured using the RalBP1 pull-down assay kit (Millipore #14-415). Ras and RhoA activity in tumor samples were measured using the respective pull-down assay kits. All the activity assays used western blotting as the final readout. For quantification of the immunoblots, the bands on each blot were first normalized to their respective internal control (10 ng of recombinant Ral, Ras, or […] protein run in the last lane) the numbers were then compared across different blots, each of which represented one treatment condition. Mice bearing H2122 tumors (median size 250 mm^3) were given a single intraperitoneal dose of RBC8 (50 mg/kg) or BQU57 (10/20/50 mg/kg) and tumors collected 3 h post-dose.

RalB-GDP [1] = target: T1, RalB-GDP (Homo sapiens, UniProt P11234, Q72L); experiment: Isothermal Titration Calorimetry (ITC); assay type: binding; conditions: 25° C.; 50 mM sodium phosphate pH 7.6; 1% DMSO
T1 construct: made in house
T1 sequence (P11234 1-206 Q72L): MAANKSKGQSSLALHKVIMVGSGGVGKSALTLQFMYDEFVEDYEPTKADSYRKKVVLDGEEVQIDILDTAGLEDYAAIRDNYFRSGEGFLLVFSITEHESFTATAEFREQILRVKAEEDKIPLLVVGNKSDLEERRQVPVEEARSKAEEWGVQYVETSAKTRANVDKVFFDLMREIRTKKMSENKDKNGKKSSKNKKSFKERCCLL
Description: Consequently, the binding of BQU57 to RalB-GDP was then determined using Isothermal Titration Calorimetry (ITC). ITC experiments were carried out using the MicroCal iTC200 system. Both protein and drug were prepared in 50 mM sodium phosphate, pH 7.6, 100 mM NaCl, and 1 mM MgCl2. Final DMSO concentration was adjusted to 1%. RalB-GDP protein (500 μM) were loaded into the syringe and titrated into drug (25 μM) or buffer alone as control. All experiments were carried out at 25° C. […] SPR experiments were carried out using the Biacore 3000 system. Running buffer: PBS, pH 7.4, 1 μM GDP, 2 mM MgCl2, 3% DMSO. Regeneration buffer: PBS, pH 7.4, 1 μM GDP, 2 mM Mg Cl2. RalB protein was immobilized on CM5 chip; samples of compound BQU57 in running buffer were injected at 30 μL/min for 60 s contact time followed by 5 minute regeneration.

RalB-GDP [2] = target: T1, RalB-GDP; experiment: Differential scanning fluorometry (DSF); assay type: binding; conditions: 10 μM RalB-GDP, 1% DMSO
Description: Differential scanning fluorometry (DSF) was used to evaluate binding between compounds and RalB-GDP. The melting temperature was measured by monitoring the increase of SYPRO orange that binds to hydrophobic regions of the protein. DSF was performed by preparing a plate containing 10 μM RalB-GDP and 10 μM RalB-GPNPP, 4×SYPRO orange in 20 mM Tris PH 8.0, 200 mM NaCl, 2.5 mM MgCl2 and 1 mM DTT buffer. Test compound was added to each well ensuring that the final concentration of DMSO was 1% across all samples. The thermal melting curves were obtained on a Light cycler 480 (Roche). The melting temperature was obtained by normalizing the curves and obtaining the temperature at the midpoint of the transition curve.

RhoA = target: T2, RhoA (Homo sapiens, UniProt P61586); experiment: RhoA activity pull-down in H2122 xenograft tumors; assay type: in vivo; conditions: BQU57 treated H2122 tumors, 3 h post-dose
T2 construct: from tissue; host or cells: H2122 xenograft tumours from nude mice
T2 sequence (P61586 whole entry): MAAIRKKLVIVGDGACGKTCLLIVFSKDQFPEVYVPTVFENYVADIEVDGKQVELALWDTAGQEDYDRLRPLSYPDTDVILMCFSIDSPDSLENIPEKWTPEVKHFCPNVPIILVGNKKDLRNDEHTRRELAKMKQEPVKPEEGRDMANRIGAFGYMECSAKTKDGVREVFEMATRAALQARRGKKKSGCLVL
Source text: as §1, §2

physchem = assay type: physicochemical; conditions: aqueous buffer

Cc1nn(C)c2c1C(c1ccc(C(F)(F)F)cc1)C(C#N)=C(N)O2 (centres unmarked) [BQU57, 6-amino-1,3-dimethyl-4-(4-(trifluoromethyl)phenyl)-1,4-dihydropyrano[2,3-c]pyrazole-5-carbonitrile]
inhibition of Ras activity in tumors (Ras): no significant inhibition | Kd (RalB-GDP [1]): 7.7 ± 0.6 µM | binding to RalB-GDP by DSF (melting temperature) (RalB-GDP [2]): dose-dependent binding | inhibition of RhoA activity in tumors (RhoA): no significant inhibition | solubility (physchem): ~75 µM (≈ 25.1 µg/mL)
